Assay results as given in patent publication US20260151375A1, “CDK2 INHIBITORS AND METHODS OF USING THE SAME” (Cedilla Therapeutics, Inc., priority 2022, published 2026).
pIC50: −log10 of the molar value.

Key:
Kuramochi cells = assay: IncuCyte Kuramochi Assay (cell proliferation); format: cell-based; conditions: 72 h, Kuramochi cells labeled with mApple-H2B, cell count, read-out: IncuCyte - Kuramochi RB-WT: IC50
Procedure: IncuCyte® assay was used to measure the effect of disclosed compounds on cell proliferation. Fluorescent microscopy images of cells were taken immediately after compound treatment and 72 hours later. Image analysis software was used to obtain cell counts as a function of compound concentration. Kuramochi cells labeled with mApple-H2B were seeded on 384-well assay-ready plates. Plates were placed in an IncuCyte® (Sartorius) and scanned at 0 and 72 hours. IncuCyte® software was used to count the number of fluorescent nuclei in each well. The fold change in cell count from 0 to 72 hours in wells treated with increasing compounds concentrations (10 pts, ½ log dilution, 20 μM top concentration) was normalized to DMSO control wells. The normalized cell counts were fit with dose response curves and a […] was calculated.

CDK2/Cyclin E1 = target: T1, CDK2/Cyclin E1 (Homo sapiens, UniProt P24941); assay: Caliper Assay (LabChip EZ Reader mobility shift assay), inhibition of CDK2/Cyclin E1 activity; format: biochemical; conditions: 2.5 nM CDK2/Cyclin E1(14-475), 100 μM ATP, 30 min preincubation; read-out: Caliper Assay (CDK2/CCNE1): IC50
T1 construct: purchased 14-475
Procedure: Inhibition of CDK2/Cyclin E1 activity in the presence of compounds of the present disclosure was evaluated using a Caliper LabChip® EZ Reader mobility shift assay. In the assay, activated CDK2/Cyclin E1 catalyzes the phosphorylation of a fluorescently tagged peptide 5-FAM-QSPKKG-CONH2 (PerkinElmer, FL Peptide 18) which induces a difference in capillary electrophoresis mobility. The peptide substrate and product were measured, and the conversion ratio was used to determine the inhibition (as % activity and IC50 values) of CDK2/Cyclin E1. Reactions contained 50 mM HEPES pH 7.5, 10 mM MgCl2, 1 mM EDTA, 2 mM DTT, 0.01% Brij35, 0.5 mg/mL BSA, 0.1% DMSO, 2.5 nM CDK2/Cyclin E1(14-475), 100 μM ATP, and 1.5 μM fluorescent peptide substrate.
Dose titrations of inhibitors in 100% DMSO were combined with 3.25 nM CDK2/Cyclin E1(14-475) and 130 μM of ATP in reaction buffer. The mixtures were incubated for 30 minutes before the addition of fluorescent peptide substrate to initiate the kinase reaction. The final conditions were 2.5 nM CDK2/Cyclin E1(14-475), 100 μM ATP, and 1.5 μM fluorescent peptide. The reactions were stopped after 100 minutes with the addition of EDTA (6 mM final EDTA concentration). The stopped reactions were analyzed on a Caliper LabChip© EZ Reader II. The conversion ratios were normalized to yield % activity, plotted against compound concentration, and fit to a four-parameter equation to determine the IC50 for each compound.

Structure (SMILES)	pIC50 (Kuramochi cells)	pIC50 (CDK2/Cyclin E1)
CC(C)(C#N)C(=O)N1CC2(CN(Cc3cncs3)CC2c2nnc(C(F)(F)c3ccc(Cl)c(Cl)c3)o2)C1 (stereo not shown) [I-159, 3-(8-(5-((3,4-dichlorophenyl)difluoromethyl)-1,3,4-oxadiazol-2-yl)-6-(thiazol-5-ylmethyl)-2,6-diazaspiro[3.4]octan-2-yl)-2,2-dimethyl-3-oxopropanenitrile]	< 5.00	< 5.00
CC1(C)C[C@@H]1C(=O)N1CC2(CN(C(=O)c3cnc(C#N)s3)CC2c2nnc(C(F)(F)c3ccc(Cl)c(Cl)c3)o2)C1 (stereo partly shown) [I-185]	5.00 to 5.30	< 5.00
CC(C)(C(=O)N1CC2(C1)CN(c1ncnc3ncsc13)CC2c1nnc(C(F)(F)c2ccc(Cl)c(Cl)c2)o1)C(F)F (stereo not shown) [I-170, 1-(8-(5-((3,4-dichlorophenyl)difluoromethyl)-1,3,4-oxadiazol-2-yl)-6-(thiazolo[4,5-d]pyrimidin-7-yl)-2,6-diazaspiro[3.4]octan-2-yl)-3,3-difluoro-2,2-dimethylpropan-1-one]	< 5.00	< 5.00
CC1(C)C[C@@H]1C(=O)N1CC2(CN(C(=O)c3cnn(Cc4ccccc4)c3)CC2c2nc(C(=O)NCc3ccccc3)co2)C1 (stereo partly drawn) [I-91, N-benzyl-2-(6-(1-benzyl-1H-pyrazole-4-carbonyl)-2-((S)-2,2-dimethylcyclopropane-1-carbonyl)-2,6-diazaspiro[3.4]octan-8-yl)oxazole-4-carboxamide]	< 5.00	6.00 to 7.00
O=C(N1CC2(C1)CN(c1ncnc3ncsc13)CC2c1nnc(C(F)(F)c2ccc(Cl)c(Cl)c2)o1)C1(C(F)(F)F)CC1 (stereo not shown) [I-181, (8-(5-((3,4-dichlorophenyl)difluoromethyl)-1,3,4-oxadiazol-2-yl)-6-(thiazolo[4,5-d]pyrimidin-7-yl)-2,6-diazaspiro[3.4]octan-2-yl)(1-(trifluoromethyl)cyclopropyl)methanone]	< 5.00	< 5.00
CC1(C)C[C@@H]1C(=O)N1CC2(CN(C(=O)c3cncs3)CC2(F)c2nnc(C(F)(F)c3ccc(Cl)c(Cl)c3)o2)C1 (single isomer, unassigned) [I-38 2nd]	< 5.00	5.00 to 6.00
Cc1ccc(CNC(=O)c2coc(C3CN(C(=O)c4cnn(Cc5ccccc5)c4)CC34CN(C(=O)[C@H]3CC3(C)C)C4)n2)nn1 (stereo partly shown) [I-10]	< 5.00	< 5.00
CC1(C)C[C@@H]1C(=O)N1CC2(C1)CN(c1cccc3ncsc13)CC2c1nnc(Cc2ccc(Cl)c(Cl)c2)o1 (stereo partly drawn) [I-101, (6-(benzo[d]thiazol-7-yl)-8-(5-(3,4-dichlorobenzyl)-1,3,4-oxadiazol-2-yl)-2,6-diazaspiro[3.4]octan-2-yl)((S)-2,2-dimethylcyclopropyl)methanone]	< 5.00	< 5.00
Cc1cc(C)n(Cc2nc(C3CN(C(=O)c4cnn(Cc5ccccc5)c4)CC34CN(C(=O)[C@H]3CC3(C)C)C4)no2)n1 (stereo partly shown) [I-85]	< 5.00	5.00 to 6.00
O=C(c1nccnc1O)N1CC(c2nnc(C(F)(F)c3ccc(Cl)c(Cl)c3)o2)C2(C1)CN(C(=O)[C@H]1CC1(F)F)C2 (stereo partly shown) [I-166]	< 5.00	< 5.00
CC1(C)C[C@@H]1C(=O)N1CC2(CN(C(=O)c3cnn(Cc4ccccc4)c3)C[C@@H]2c2nnc(Cc3ccc(Cl)c(Cl)c3)o2)C1 [I-16, (1-benzyl-1H-pyrazol-4-yl)((R)-8-(5-(3,4-dichlorobenzyl)-1,3,4-oxadiazol-2-yl)-2-((S)-2,2-dimethylcyclopropane-1-carbonyl)-2,6-diazaspiro[3.4]octan-6-yl)methanone]	< 5.00	5.00 to 6.00
CC1(C)C[C@@H]1C(=O)N1CC2(C1)CN(c1ncnc3ncsc13)CC2c1nnc(C(F)(F)c2ccc(Cl)cc2)o1 (stereo partly drawn) [I-37, (8-(5-((4-chlorophenyl)difluoromethyl)-1,3,4-oxadiazol-2-yl)-6-(thiazolo[4,5-d]pyrimidin-7-yl)-2,6-diazaspiro[3.4]octan-2-yl)((S)-2,2-dimethylcyclopropyl)methanone]	< 5.00	5.00 to 6.00
O=C(c1cncs1)N1CC(c2nnc(C(F)(F)c3ccc(Cl)c(Cl)c3)o2)C2(C1)CN(C(=O)N1CCC1)C2 (stereo not shown) [I-186, Azetidin-1-yl(8-(5-((3,4-dichlorophenyl)difluoromethyl)-1,3,4-oxadiazol-2-yl)-6-(thiazole-5-carbonyl)-2,6-diazaspiro[3.4]octan-2-yl)methanone]	< 5.00	< 5.00
O=C(c1[nH]ncc1F)N1CC(c2nnc(C(F)(F)c3ccc(Cl)c(Cl)c3)o2)C2(C1)CN(C(=O)[C@H]1CC1(F)F)C2 (stereo partly shown) [I-162]	< 5.00	< 5.00
CC1(C)C[C@@H]1C(=O)N1CC2(CN(C(=O)c3cnc(Br)s3)CC2c2nnc(C(F)(F)c3ccc(Cl)c(Cl)c3)o2)C1 (stereo partly shown) [I-199]	5.00 to 5.30	< 5.00
CC1(C)C[C@@H]1C(=O)N1CC2(CN(C(=O)c3cncs3)CC2c2nnc(Cc3nc4ccccc4o3)o2)C1 (stereo partly shown) [I-67]	< 5.00	5.00 to 6.00
CC(c1nc(C2CN(C(=O)c3cncs3)CC23CN(C(=O)[C@H]2CC2(C)C)C3)no1)n1ccc(C2CCCC2)n1 (single isomer, unassigned) [I-36 1st]	< 5.00	7.00 to 8.00
O=C(c1noc2ccccc12)N1CC(c2nnc(C(F)(F)c3ccc(Cl)c(Cl)c3)o2)C2(C1)CN(C(=O)[C@H]1CC1(F)F)C2 (stereo partly drawn) [I-156, benzo[d]isoxazol-3-yl(8-(5-((3,4-dichlorophenyl)difluoromethyl)-1,3,4-oxadiazol-2-yl)-2-((R)-2,2-difluorocyclopropane-1-carbonyl)-2,6-diazaspiro[3.4]octan-6-yl)methanone]	< 5.00	< 5.00
CC1(C)C[C@@H]1C(=O)N1CC2(CN(C(=O)c3cnn(Cc4ccccc4)c3)CC2c2nnc(Cc3ccc(Cl)c(Cl)c3)[nH]2)C1 (stereo partly drawn) [I-6, (1-benzyl-1H-pyrazol-4-yl)(8-(5-(3,4-dichlorobenzyl)-4H-1,2,4-triazol-3-yl)-2-((S)-2,2-dimethylcyclopropane-1-carbonyl)-2,6-diazaspiro[3.4]octan-6-yl)methanone]	5.00 to 5.30	5.00 to 6.00
CC1(C)C[C@@H]1C(=O)N1CC2(C1)CN(c1ncnc3ncsc13)CC2c1nnc(Cc2cccc(C3CCOCC3)n2)o1 (stereo partly drawn) [I-105, ((S)-2,2-dimethylcyclopropyl)(8-(5-((6-(tetrahydro-2H-pyran-4-yl)pyridin-2-yl)methyl)-1,3,4-oxadiazol-2-yl)-6-(thiazolo[4,5-d]pyrimidin-7-yl)-2,6-diazaspiro[3.4]octan-2-yl)methanone]	< 5.00	< 5.00
O=C(c1cnc2ccccc2n1)N1CC(c2nnc(C(F)(F)c3ccc(Cl)c(Cl)c3)o2)C2(C1)CN(C(=O)[C@H]1CC1(F)F)C2 (stereo partly shown) [I-165]	< 5.00	5.00 to 6.00
CC1(C)C[C@@H]1C(=O)N1CC2(C1)CN(c1ncnc3ncsc13)CC2c1nnc(C(F)(F)c2ccc(Cl)c(Cl)c2)o1 (stereo partly drawn) [I-192, (8-(5-((3,4-dichlorophenyl)difluoromethyl)-1,3,4-oxadiazol-2-yl)-6-(thiazolo[4,5-d]pyrimidin-7-yl)-2,6-diazaspiro[3.4]octan-2-yl)((S)-2,2-dimethylcyclopropyl)methanone]	5.00 to 5.30	5.00 to 6.00
O=C(c1cc(C(F)(F)F)n[nH]1)N1CC(c2nnc(C(F)(F)c3ccc(Cl)c(Cl)c3)o2)C2(C1)CN(C(=O)[C@H]1CC1(F)F)C2 (stereo partly shown) [I-161]	5.00 to 5.30	< 5.00
CC1(C)C[C@@H]1C(=O)N1CC2(CN(C(=O)c3cnn(Cc4ccccc4)c3)CC2c2noc(Cc3ccc(Cl)cc3)n2)C1 (stereo partly shown) [I-1]	5.00 to 5.30	6.00 to 7.00
O=C(N1CC(c2nnc(C(F)(F)c3ccc(Cl)c(Cl)c3)o2)C2(C1)CN(C(=O)C(F)(F)F)C2)C(F)(F)F (stereo not shown) [I-205, 1,1′-(8-(5-((3,4-dichlorophenyl)difluoromethyl)-1,3,4-oxadiazol-2-yl)-2,6-diazaspiro[3.4]octane-2,6-diyl)bis(2,2,2-trifluoroethan-1-one)]	5.00 to 5.30	< 5.00
CC1(C)C[C@@H]1C(=O)N1CC2(CN(C(=O)c3cncs3)CC2c2nnc(C(F)(F)c3ccc(Br)cc3)o2)C1 (stereo partly shown) [I-69]	< 5.00	6.00 to 7.00
O=C(c1cncs1)N1CC(c2nnc(C(F)(F)c3ccc(Cl)c(Cl)c3)o2)C2(C1)CN(C(=O)[C@H]1CCCO1)C2 (stereo partly shown) [I-157]	< 5.00	5.00 to 6.00
O=C(c1nncs1)N1CC(c2nnc(C(F)(F)c3ccc(Cl)c(Cl)c3)o2)C2(C1)CN(C(=O)[C@H]1CC1(F)F)C2 (stereo partly shown) [I-149]	< 5.00	< 5.00
O=C(c1cncs1)N1CC(c2nnc(Cc3ccc(Cl)c(Cl)c3)o2)C2(C1)CN(c1nc3ccccc3o1)C2 (stereo not shown) [I-41]	< 5.00	< 5.00
